Like-named read-outs stand apart in the source and are kept apart here.
Legend:
Experiment in all cases: Antifungal activity by the well-cut diffusion method
Format in all cases: cell-based
Microsporum gallinna [1] = details: for zone of inhibition at 1000 µg/mL: Microsporum, read-out: Inhibition Zone Dimeter (mm) M. gallina
Protocol: (§1) Microsporum canis and Microsporum gallinna were obtained from King Fahad Hospital in Jeddah, Saudi Arabia
(§2) Antifungal Activity by the Well-Cut Diffusion Method:
Well-cut diffusion technique was used to evaluate the antifungal activities of the_tested compounds [El-Masry et al. “Synthesis and antimicrobial activity of some new benzimidazole derivatives” Molecules, 5 (2002), pp. 1429-1438]. The Sabaroud dexterous agar media was inoculated with 1 ml from tested spore suspension, then wells were cut from the plate using a sterile 10 mm cork-borer. About 0.5 and 1.0 ml of a chloroform solution containing 1.0 mg/ml of tested compounds were added into each well. All plates were incubated at 4° C. for 2 h to slow fungal growth. The plates were later incubated at 28° C. for a week [Mtolera and Semesi “Antimicrobial activity of extracts from six green algae from Tanzania.” Curr. Trends Mar. Bot. Res. East Afr. Reg. pp. 211-217 (1996)]. After incubation, the diameter of the growth inhibition zone was measured in mm [Attaie et al. Inhibition of growth of S. aureus during production of acidophilus yogurt J. Food Prot., 50 (1987), pp. 224-228], see Table 3.

Microsporum canis = details: for zone of inhibition at 500 µg/mL / zone of inhibition at 1000 µg/mL: Microsporum canis, read-out: Inhibition Zone Dimeter (mm) M. canis
Protocol: as §1, §2
Well-cut diffusion technique was used to evaluate the antifungal activities of the_tested compounds [El-Masry et al. “Synthesis and antimicrobial activity of some new benzimidazole derivatives” Molecules, 5 (2002), pp. 1429-1438]. The Sabaroud dexterous agar media was inoculated with 1 ml from tested spore suspension, then wells were cut from the plate using a sterile 10 mm cork-borer. […] All plates were incubated at 4° C. for 2 h to slow fungal growth. The plates were later incubated at 28° C. for a week [Mtolera and Semesi “Antimicrobial activity of extracts from six green algae from Tanzania.” Curr. Trends Mar. Bot. Res. East Afr. Reg. pp. 211-217 (1996)]. After incubation, the diameter of the growth inhibition zone was measured in mm [Attaie et al. Inhibition of growth of S. aureus during production of acidophilus yogurt J. Food Prot., 50 (1987), pp. 224-228], see Table 3.

Microsporum gallinna [2] = details: for zone of inhibition at 500 µg/mL: Microsporum, read-out: Inhibition Zone Dimeter (mm) M. gallina
[3] = Concentration 0.5 mg/mL, 28° C. for a week, 10 mm wells
[4] = Concentration 1.0 mg/mL, 28° C. for a week, 10 mm wells

| Compound | zone of inhibition at 1000 µg/mL (Microsporum gallinna [1]) [mm] | inhibition of Microsporum gallinna grown on the solid media (in words) (Microsporum gallinna [1]) | zone of inhibition at 500 µg/mL (Microsporum canis) [mm] | zone of inhibition at 1000 µg/mL (Microsporum canis) [mm] | inhibition of Microsporum canis grown on the solid media (in words) (Microsporum canis) | zone of inhibition at 500 µg/mL (Microsporum gallinna [2]) [mm] | zone of inhibition at 500 µg/mL (Microsporum canis; [3]) [mm] | zone of inhibition at 1000 µg/mL (Microsporum canis; [4]) [mm] | antimicrobial activity against M. canis, comparison among tested compounds (Microsporum canis; 0.5 mg/ml concentration) | antimicrobial activity against M. gallinna, comparison among tested compounds (Microsporum gallinna [2]; 0.5 mg/ml concentration) | Inhibition Zone Dimeter (mm) M. gallina (Microsporum gallinna [1]; [4]) [mm] | Inhibition Zone Dimeter (mm) M. canis (Microsporum canis; [3]) [mm] | Inhibition Zone Dimeter (mm) M. canis (Microsporum canis; [4]) [mm] | Inhibition Zone Dimeter (mm) M. gallina (Microsporum gallinna [2]; [3]) [mm] |
| --- | --- | --- | --- | --- | --- | --- | --- | --- | --- | --- | --- | --- | --- | --- |
| C=CC(C)(CCC=C(C)C)OC(C)=O (centres unmarked) [Linalyl acetate, 3,7-Dimethyl-1,6-octadien-3-yl acetate, reference compound] | 85 | strongly inhibited | 80 | 85 | strongly inhibited | 80 |  |  |  |  |  |  |  |  |
| C=CC(C)(CC=CC(C)(C)OO)OC(C)=O (centres unmarked) [Hydroperoxide 6, 7-Hydroperoxy-3,7-dimethylocta-1,5-diene-3-yl acetate] | 85 | strongly inhibited |  |  | strongly inhibited | 80 | 80 | 85 |  |  |  |  |  |  |
| CC(=O)OC(C)(CCC=C(C)C)C1CO1 (centres unmarked) [Epoxide 4, 1,2-Epoxy-3,7-dimethyl-6-octene-3-yl acetate] | 85 | strongly inhibited |  |  | strongly inhibited | 65 | 75 | 85 |  |  |  |  |  |  |
| C=CC(C)(CCC(OO)C(=C)C)OC(C)=O (centres unmarked) [Hydroperoxide 5, 6-Hydroperoxy-3,7-dimethylocta-1,7-diene-3-yl acetate] | 85 | strongly inhibited |  |  | strongly inhibited | 80.5 | 81 | 85 | highest antimicrobial activity | highest antimicrobial activity |  |  |  |  |
| C=CC(C)(CCC1OC1(C)C)OC(C)=O (centres unmarked) [Epoxide 3, 6,7-Epoxy-3,7-dimethyl-1-octene-3-yl-acetate] |  | strongly inhibited |  |  | strongly inhibited |  |  |  |  |  | 74.0 | 60.0 | 85.0 | 37.0 |

Reference: patent US10584106B1, “Antifungal compounds derived from lavender oil” (King Abdulaziz University, priority 2018, dated 2020)
